Measured values as given in patent US11242541B2, “Skeletal muscle cells and method for inducing same” (KYOTO PREFECTURAL PUBLIC UNIVERSITY CORPORATION, priority 2016, dated 2022).

What was measured:
human fibroblasts [1] = assay: Multinucleation of ML-infected cells with or without ERK5 pathway inhibitor (Example 13); assay type: cell-based; conditions: addition of 2-5 μM inhibitor, 14 days after infection
Procedure: (§1) In the same manner as in Example 12, human fibroblasts were infected with both a retrovirus vector incorporating MyoD1 gene and a retrovirus vector incorporating L-myc gene (ML). As a control, cells free of infection with a retrovirus vector were also prepared (−). A ERK5 pathway inhibitor, XMDB-92, was added at the indicated concentration to some groups. These were cultured in a myoblast differentiation medium in the same manner as in Example 12. 14 days after infection, nuclear staining was performed in the same manner as in Example 3. Images taken using a fluorescence microscope (Keyence BZ710) are shown (FIG. 13A, upper panel). In addition, the percentages of cells having 4 or more nuclei, cells having 2-3 nuclei and cells having one nucleus were calculated (FIG. 13A, lower panel).

human fibroblasts [2] = assay: Real-time RT-PCR of Myogenin, CKM, Dystrophin mRNA with ERK5 pathway inhibitor (Example 13); assay type: cell-based; conditions: ML-infected cells with inhibitor, 14 days after infection
Procedure: as §1
In addition, 14 days after infection, RNA was extracted from the cells. As a control, RNA was also extracted from the primary human skeletal muscle cells (pSKMs). mRNAs of Myogenin, CKM, Dystrophin were quantified by real time RT-PCR.

CCOc1cc(N2CCC(O)CC2)ccc1Nc1ncc2c(n1)N(C)c1ccccc1C(=O)N2C [XMD8-92]
percentage of cells having 2-3 nuclei (human fibroblasts [1]): 21-23%
percentage of cells having not less than 4 nuclei (human fibroblasts [1]): 10-12%
induction of expression of Myogenin, CKM, Dystrophin mRNA by ML gene transfer (human fibroblasts [2]): not suppressed
